Read-outs that look alike come from different tables or passages of the source.
Key:
[1] = system: chick dorsal root ganglia (DRG) explants; experiment: Chick dorsal root ganglion cultures and neurite outgrowth; assay type: cell-based; conditions: read-out: ED50, nM Neurite Outgrowth in DRG Cultures
Experimental: Dorsal root ganglia were dissected from chick embryos of ten day gestation. Whole ganglion explants were cultured on thin layer Matrigel-coated 12 well plates with Liebovitz L15 plus high glucose media supplemented with 2 mM glutamine and 10% fetal calf serum, and also containing 10 μM cytosine β-D arabinofuranoside (Ara C) at 37° C. in an environment containing 5% CO2. Twenty-four hours later, the DRGs were treated with various concentrations of nerve growth factor (NGF), immunophilin ligands or combinations of NGF plus drugs. Forty-eight hours after drug treatment, the ganglia were visualized under phase contrast or Hoffman Modulation contrast with a Zeiss Axiovert inverted microscope. Photomicrographs of the explants were made, and neurite outgrowth was quantitated. Neurites longer than the DRG diameter were counted as positive, with total number of neurites quantitated per each experimental condition. Three to four DRGs were cultured per well, and each treatment was performed in duplicate.

[2] = molecular target: FKBP (Homo sapiens, UniProt P62942); experiment: Ki test procedure: inhibition of peptidyl-prolyl isomerase (rotamase) activity, chymotrypsin-coupled assay; assay type: biochemical; conditions: apparent Ki, substrate N-succinyl-Ala-Phe-Pro-Phe-p-nitroanilide
FKBP, sequence (P62942 whole entry): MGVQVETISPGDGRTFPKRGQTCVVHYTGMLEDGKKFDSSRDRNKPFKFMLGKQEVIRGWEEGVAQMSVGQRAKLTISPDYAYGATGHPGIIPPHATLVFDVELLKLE

[3] = drug alone, chick embryo DRG explants, 48 hours after drug treatment

Compound	EC50 ([1]; Gallus gallus, 48 h)	other results
O=C(C(=O)N1CCCCC1C(=O)OCc1ccccc1)c1ccccc1 (centres unmarked) [Compound 1, Benzyl N-(phenylglyoxyl)-2-piperidinecarboxylate]	25 to 100 nM	
O=C(C(=O)N1CCCCC1C(=O)OCCCc1ccccc1)c1ccccc1 (centres unmarked) [Compound 2, 3-Phenyl-1-propyl N-(phenylglyoxyl)-2-piperidinecarboxylate]	10 to 20 nM	
COc1ccc(CCCCOC(=O)C2CCCCN2C(=O)C(=O)c2ccccc2)cc1 (centres unmarked) [Compound 3]	0.5 nM	
O=C(C(=O)N1CCCCC1C(=O)OCCCCc1ccccc1)c1ccccc1 (centres unmarked) [Compound 4, 4-Phenyl-1-butyl N-(phenylglyoxyl)-2-piperidinecarboxylate]	25 to 100 nM	
O=C(C(=O)N1CCCCC1C(=O)OCCc1ccccc1)c1ccccc1 (centres unmarked) [Compound 5, 2-Phenyl-1-ethyl N-(phenylglyoxyl)-2-piperidinecarboxylate]	25 to 100 nM	
COC(=O)C(=O)N1CCCCC1C(=O)OCc1ccccc1 (centres unmarked) [Compound 7, Benzyl N-(methoxyglyoxyl)-2-piperidinecarboxylate]	> 10000 nM	
COc1cc(C(=O)C(=O)N2CCCCC2C(=O)OCCCCc2ccccc2)cc(OC)c1OC [Compound 14, 4-Phenylbutyl (S)-N-(3,4,5-trimethoxyphenylglyoxyl)pipecolate]	1 to 5 nM	
COc1ccc(CCCCOC(=O)C2CCCCN2C(=O)C(=O)c2cc(OC)c(OC)c(OC)c2)cc1 [Compound 16, 4-(4-Methoxyphenyl)butyl (S)-N-(3,4,5-trimethoxyphenylglyoxyl)pipecolate]	0.03 nM	
CCC(C)(C)C(=O)C(=O)N1CCC[C@H]1C(=O)OCCCc1ccccc1 [Compound 17, 3-phenyl-1-propyl (2S)-1-(3,3-dimethyl-1,2-dioxopentyl)-2-pyrrolidinecarboxylate]	0.053 nM	
CCC(C)(C)C(=O)C(=O)N1CCC[C@H]1C(=O)OC/C=C/c1ccccc1 [Compound 18, 3-phenyl-1-prop-2-(E)-enyl (2S)-1-(3,3-dimethyl-1,2-dioxopentyl)-2-pyrrolidinecarboxylate]	105 nM	
CCC(C)(C)C(=O)C(=O)N1CCC[C@H]1C(=O)OCCCc1cc(OC)c(OC)c(OC)c1 [Compound 19, 3-(3,4,5-trimethoxyphenyl)-1-propyl (2S)-1-(3,3-dimethyl-1,2-dioxopentyl)-2-pyrrolidine-carboxylate]	80 nM	Ki ([2]; Table I): 25 nM
CCC(C)(C)C(=O)C(=O)N1CCC[C@H]1C(=O)OC/C=C/c1cc(OC)c(OC)c(OC)c1 [Compound 20, 3-(3,4,5-trimethoxyphenyl)-1-prop-2-(E)-enyl (2S)-1-(3,3-dimethyl-1,2-dioxopentyl)-2-pyrrolidine carboxylate]	190 nM	Ki ([2]; Table I): 125 nM
CCC(C)(C)C(=O)C(=O)N1CCC[C@H]1C(=O)OC/C=C/c1ccc(Cl)c(Cl)c1 [Compound 21, 3-(4,5-Dichlorophenyl)-1-prop-2-(E)-enyl (2S)-1-(3,3-dimethyl-1,2-dioxopentyl)-2-pyrrolidine carboxylate]	85 nM	Ki ([2]; Table I): 2500 nM
CCC(C)(C)C(=O)C(=O)N1CCC[C@H]1C(=O)OC/C=C/c1cc(OC)ccc1OC [Compound 22, 3-(2,5-Dimethoxyphenyl)-1-prop-2(E)-enyl (2S)-1-(3,3-dimethyl-1,2-dioxopentyl)-2-pyrrolidinecarboxylate]	0.8 nM	
CCC(C)(C)C(=O)C(=O)N1CCC[C@H]1C(=O)OCCCc1cccnc1 [Compound 23, 3-(3-Pyridyl)-1-propyl (2S)-1-(3,3-dimethyl-1,2-dioxopentyl)-2-pyrrolidinecarboxylate]	0.05 nM	
O=C(C(=O)N1CCC[C@H]1C(=O)OCCCc1ccccc1)C1CCCCC1 [Compound 24, 3-Phenyl-1-propyl (2S)-1-(cyclohexylglyoxyl)-2-pyrrolidinecarboxylate]	0.13 nM	
O=C(C(=O)N1CCCCC1C(=O)OC(CCCc1ccccc1)CCCc1ccccc1)c1ccccc1 (centres unmarked) [Compound 28]		EC50 [1, 3]: 0.0044 nM
COc1cc(C(=O)C(=O)N2CCCCC2C(=O)OC(CCCc2ccccc2)CCCc2ccccc2)cc(OC)c1OC [Compound 29, 1,7-Diphenyl-4-heptyl (S)-N-(3,4,5-trimethoxyphenylglyoxyl)pipecolate]		EC50 [1, 3]: 0.61 nM
COc1cc(C(=O)C(=O)N2CCCCC2C(=O)OC(CCCc2ccccc2)CCc2cccnc2)cc(OC)c1OC [Compound 30, 1-Phenyl-6-(3-pyridyl)-3-hexyl (S)-N-(3,4,5-trimethoxyphenylglyoxyl)pipecolate]	0.95 nM	
COc1cc(C(=O)C(=O)N2CCCCC2C(=O)OC(CCCc2ccccc2)CCCc2ccccn2)cc(OC)c1OC [Compound 31, 1-Phenyl-7-(2-pyridyl)-4-heptyl (S)-N-(3,4,5-trimethoxyphenylglyoxyl)pipecolate]	25 nM	Ki ([2]; Table II): 1 nM
COc1ccc(CCCC(CCCc2ccccc2)OC(=O)C2CCCCN2C(=O)C(=O)c2cc(OC)c(OC)c(OC)c2)cc1 [Compound 32, 1-Phenyl-7-(4-methoxyphenyl)-4-heptyl (S)-N-(3,4,5-trimethoxyphenylglyoxyl)-pipecolate]	0.5 nM	Ki ([2]; Table II): 3 nM

From patent US7056935B2, “Rotamase enzyme activity inhibitors” (GPI NIL Holdings, Inc., priority 1995, dated 2006)
